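Cells were grown in 96-well plates and exposed to each compound for 48 hours at five concentrations; endpoints were interpolated linearly between bracketing concentrations, or set to the highest concentration if not reached. GI50: concentration for 50% inhibition of growth.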 Calls of active or inactive are those of the source. Cut-off read from the data, not from the text of the source: active = GI50 up to about 1.1 µM and inactive = higher.
How the values were obtained:
Experiment in all cases: NCI tumour cell line growth inhibition, 48 h
[1] = test system: A498
[2] = test system: A549
[3] = test system: ACHN
[4] = test system: CAKI-1
[5] = test system: COLO 205
[6] = test system: DU-145
[7] = test system: EKVX
[8] = test system: HCT-116
[9] = test system: HCT-15
[10] = test system: HOP-92
[11] = test system: HT-29
[12] = test system: IGROV-1
[13] = test system: KM12
[14] = test system: M14
[15] = test system: MDA-MB-231
[16] = test system: MDA-MB-435
[17] = test system: MDA-N
[18] = test system: NCI-H226
[19] = test system: NCI-H23
[20] = test system: NCI/ADR-RES
[21] = test system: OVCAR-3
[22] = test system: OVCAR-4
[23] = test system: OVCAR-5
[24] = test system: OVCAR-8
[25] = test system: PC-3
[26] = test system: RXF 393
[27] = test system: SF-268
[28] = test system: SF-295
[29] = test system: SF-539
[30] = test system: SK-MEL-28
[31] = test system: SK-MEL-5
[32] = test system: SN12C
[33] = test system: SNB-19
[34] = test system: SNB-75
[35] = test system: SW-620
[36] = test system: TK-10
[37] = test system: U-251
[38] = test system: UO-31
[39] = test system: 786-0
[40] = test system: HCC 2998
[41] = test system: HOP-62
[42] = test system: K562
[43] = test system: MCF7
[44] = test system: MOLT-4
[45] = test system: Malme-3M
[46] = test system: NCI-H460
[47] = test system: NCI-H522
[48] = test system: RPMI-8226
[49] = test system: SK-MEL-2
[50] = test system: SK-OV-3
[51] = test system: SR
[52] = test system: T47D
[53] = test system: UACC-62
[54] = test system: CCRF-CEM
[55] = test system: Hs-578T
[56] = test system: LOX IMVI
[57] = test system: UACC-257
[58] = test system: HL-60

CC(O)(C#N)CC(O)(C(F)(F)Cl)C(F)(F)Cl (stereo not drawn) was tested, and the GI50 [1] was > 10 µM (inactive), the GI50 [2] was > 10 µM (inactive) and the GI50 [3] was > 10 µM (inactive). The GI50 [4] was > 10 µM (inactive), the GI50 [5] was > 10 µM (inactive) and the GI50 [6] was > 10 µM (inactive). The GI50 [7] was > 10 µM (inactive), the GI50 [8] was > 10 µM (inactive) and the GI50 [9] was greater than 10 µM. For the same molecule, the GI50 [10] was > 10 µM (inactive), the GI50 [11] was > 10 µM (inactive) and the GI50 [12] was > 10 µM (inactive). The GI50 [13] was > 10 µM (inactive), the GI50 [14] was > 10 µM (inactive) and the GI50 [15] was > 10 µM (inactive). The GI50 [16] was > 10 µM (inactive), the GI50 [17] was > 10 µM (inactive) and the GI50 [18] was > 10 µM (inactive). The GI50 [19] was > 10 µM (inactive), the GI50 [20] was > 10 µM (inactive) and the GI50 [21] was > 10 µM (inactive). For the same molecule, the GI50 [22] was > 10 µM (inactive), the GI50 [23] was > 10 µM (inactive) and the GI50 [24] was > 10 µM (inactive). For the same molecule, the GI50 [25] was > 10 µM (inactive), the GI50 [26] was > 10 µM (inactive) and the GI50 [27] was > 10 µM (inactive). The GI50 [28] was > 10 µM (inactive), the GI50 [29] was > 10 µM (inactive) and the GI50 [30] was > 10 µM (inactive). For the same molecule, the GI50 [31] was > 10 µM (inactive), the GI50 [32] was > 10 µM (inactive) and the GI50 [33] was > 10 µM (inactive). The GI50 [34] was > 10 µM (inactive), the GI50 [35] was > 10 µM (inactive) and the GI50 [36] was > 10 µM (inactive). For the same molecule, the GI50 [37] was > 10 µM (inactive) and the GI50 [38] was > 10 µM (inactive).

With OCCNC1=Nc2ccc(Cl)cc2C(=S)N2CSC[C@@H]12 the GI50 [39] was > 100 µM (inactive), the GI50 [1] was > 100 µM (inactive) and the GI50 [2] was > 100 µM (inactive). The GI50 [3] was > 100 µM (inactive), the GI50 [4] was > 100 µM (inactive) and the GI50 [5] was > 100 µM (inactive). The GI50 [6] was > 100 µM (inactive), the GI50 [40] was > 100 µM (inactive) and the GI50 [8] was > 100 µM (inactive). The GI50 [9] was greater than 100 µM, the GI50 [41] was > 100 µM (inactive) and the GI50 [10] was > 100 µM (inactive). The GI50 [11] was > 100 µM (inactive), the GI50 [42] was > 100 µM (inactive) and the GI50 [13] was > 100 µM (inactive). The GI50 [14] was > 100 µM (inactive), the GI50 [43] was > 100 µM (inactive) and the GI50 [15] was > 100 µM (inactive). For the same molecule, the GI50 [16] was > 100 µM (inactive), the GI50 [44] was > 100 µM (inactive) and the GI50 [45] was > 100 µM (inactive). For the same molecule, the GI50 [19] was > 100 µM (inactive), the GI50 [46] was > 100 µM (inactive) and the GI50 [47] was > 100 µM (inactive). The GI50 [20] was > 100 µM (inactive), the GI50 [21] was > 100 µM (inactive) and the GI50 [22] was > 100 µM (inactive). The GI50 [23] was > 100 µM (inactive), the GI50 [24] was > 100 µM (inactive) and the GI50 [25] was > 100 µM (inactive). The GI50 [48] was > 100 µM (inactive), the GI50 [26] was > 100 µM (inactive) and the GI50 [27] was > 100 µM (inactive). The GI50 [28] was > 100 µM (inactive), the GI50 [29] was > 100 µM (inactive) and the GI50 [30] was > 100 µM (inactive). For the same molecule, the GI50 [49] was > 100 µM (inactive), the GI50 [31] was > 100 µM (inactive) and the GI50 [50] was > 100 µM (inactive). For the same molecule, the GI50 [32] was > 100 µM (inactive), the GI50 [33] was > 100 µM (inactive) and the GI50 [51] was > 100 µM (inactive). The GI50 [35] was > 100 µM (inactive), the GI50 [52] was > 100 µM (inactive) and the GI50 [37] was > 100 µM (inactive). The GI50 [53] was > 100 µM (inactive) and the GI50 [38] was > 100 µM (inactive).

For CCOC(=O)Cn1c2ccc(Br)cc2c2nc3ccccc3nc21, the GI50 [39] was > 100 µM (inactive), the GI50 [1] was > 100 µM (inactive) and the GI50 [2] was > 100 µM (inactive). The GI50 [3] was > 100 µM (inactive), the GI50 [4] was > 100 µM (inactive) and the GI50 [54] was > 100 µM (inactive). For the same molecule, the GI50 [5] was > 100 µM (inactive), the GI50 [6] was > 100 µM (inactive) and the GI50 [8] was > 100 µM (inactive). For the same molecule, the GI50 [41] was > 100 µM (inactive), the GI50 [10] was > 100 µM (inactive) and the GI50 [11] was > 100 µM (inactive). The GI50 [55] was 93.3 µM (inactive), the GI50 [12] was 55.7 µM (inactive) and the GI50 [42] was > 100 µM (inactive). The GI50 [13] was > 100 µM (inactive), the GI50 [56] was > 100 µM (inactive) and the GI50 [14] was > 100 µM (inactive). The GI50 [15] was > 100 µM (inactive), the GI50 [16] was > 100 µM (inactive) and the GI50 [17] was > 100 µM (inactive). For the same molecule, the GI50 [44] was > 100 µM (inactive), the GI50 [18] was > 100 µM (inactive) and the GI50 [19] was > 100 µM (inactive). The GI50 [20] was > 100 µM (inactive), the GI50 [21] was > 100 µM (inactive) and the GI50 [23] was > 100 µM (inactive). For the same molecule, the GI50 [24] was > 100 µM (inactive), the GI50 [25] was > 100 µM (inactive) and the GI50 [48] was > 100 µM (inactive). For the same molecule, the GI50 [26] was > 100 µM (inactive), the GI50 [27] was > 100 µM (inactive) and the GI50 [28] was > 100 µM (inactive). The GI50 [30] was > 100 µM (inactive), the GI50 [49] was > 100 µM (inactive) and the GI50 [31] was > 100 µM (inactive). The GI50 [32] was > 100 µM (inactive), the GI50 [33] was > 100 µM (inactive) and the GI50 [34] was > 100 µM (inactive). The GI50 [51] was 88.7 µM (inactive), the GI50 [35] was > 100 µM (inactive) and the GI50 [52] was > 100 µM (inactive). For the same molecule, the GI50 [36] was > 100 µM (inactive), the GI50 [37] was > 100 µM (inactive) and the GI50 [57] was > 100 µM (inactive). For the same molecule, the GI50 [53] was > 100 µM (inactive) and the GI50 [38] was > 100 µM (inactive).

In the case of CC(C)[C@]12O[C@H]1[C@@H]1O[C@]13[C@]1(O[C@H]1C[C@H]1C4=C(CC[C@@]13C)C(=O)OC4)[C@@H]2O [TRIPTOLIDE], the GI50 [39] is reported as 0.0169 µM (active), the GI50 [1] is reported as 0.018 µM (active) and the GI50 [3] is reported as 0.00679 µM (active). For the same molecule, the GI50 [54] was 0.011 µM (active), the GI50 [5] was 0.00776 µM (active) and the GI50 [6] was 0.0244 µM (active). For the same molecule, the GI50 [7] was 0.021 µM (active), the GI50 [40] was 0.0183 µM (active) and the GI50 [8] was 0.00258 µM (active). For the same molecule, the GI50 [9] was 0.014 µM, the GI50 [58] was 0.00667 µM (active) and the GI50 [41] was 0.00701 µM (active). For the same molecule, the GI50 [10] was 0.023 µM (active), the GI50 [11] was 0.0083 µM (active) and the GI50 [55] was 0.015 µM (active). For the same molecule, the GI50 [12] was 0.00713 µM (active), the GI50 [42] was 0.017 µM (active) and the GI50 [13] was 0.0274 µM (active). For the same molecule, the GI50 [56] was 0.00514 µM (active), the GI50 [14] was < 0.0136 µM (active) and the GI50 [43] was 0.00427 µM (active). For the same molecule, the GI50 [15] was 0.0145 µM (active), the GI50 [16] was 0.00693 µM (active) and the GI50 [17] was 0.00759 µM (active). The GI50 [44] was 0.00764 µM (active), the GI50 [45] was 0.0112 µM (active) and the GI50 [18] was 0.0216 µM (active). For the same molecule, the GI50 [19] was 0.00322 µM (active), the GI50 [46] was 0.00527 µM (active) and the GI50 [47] was 0.00881 µM (active). For the same molecule, the GI50 [20] was 0.0261 µM (active), the GI50 [21] was 0.00586 µM (active) and the GI50 [22] was 0.00792 µM (active). For the same molecule, the GI50 [24] was 0.0203 µM (active), the GI50 [25] was 0.0181 µM (active) and the GI50 [27] was 0.0249 µM (active). For the same molecule, the GI50 [28] was 0.0279 µM (active), the GI50 [29] was 0.00745 µM (active) and the GI50 [30] was 0.00637 µM (active). The GI50 [49] was 0.00643 µM (active), the GI50 [31] was 0.00697 µM (active) and the GI50 [50] was 0.0474 µM (active). The GI50 [32] was 0.00861 µM (active), the GI50 [33] was 0.104 µM (active) and the GI50 [34] was 0.0101 µM (active). For the same molecule, the GI50 [51] was 0.0173 µM (active), the GI50 [35] was 0.0141 µM (active) and the GI50 [36] was < 0.014 µM (active). The GI50 [37] was 0.061 µM (active), the GI50 [53] was 0.00421 µM (active) and the GI50 [38] was 0.0124 µM (active).
